Assay results as given in article PMC12621043, “Un-LOK-ing a New Approach for Conformational Selective Targeting of STK10 (LOK)” (ACS Medicinal Chemistry Letters, 2025).

Molecular target: T1, CLK3A (Homo sapiens, UniProt P49761)
T1 construct: purchased in-house DSF kinase panel (SGC-style construct names; the trailing letter is the construct ID)
Test: DSF Tm panel
Assay type: binding
Conditions: 10 μM compound
Description: (§1) The synthesized urea-based derivatives were evaluated in a panel of kinases by differential scanning fluorescence (DSF) to investigate their selectivity profile. A positive ΔT m in the DSF assay indicates stabilization of the protein upon ligand binding in comparison to its apo state, with higher thermal shifts generally correlating with stronger binding. For this purpose, we used our internal kinase selectivity panel (∼90 kinases) along with staurosporine as a positive control. […] This was also reflected in the overall low selectivity score (S) throughout the series, which is determined by the ratio between the number of kinases that are stabilized above 5 °C and the total number of kinases tested (Figure ). Motivated by these findings, we further validated the entire series by orthogonal binding and activity assays to determine the in vitro and cellular potency and selectivity of the developed series in comparison to the selected reference compounds. […]
(§2) was performed as previously described.[1,2] Briefly, recombinant protein kinase domains at a concentration of 2 μM were mixed with 10 μM compound in a buffer containing 20 mM HEPES, […]
(§3) probe (1 µl per mL). Subsequently, temperature-dependent protein unfolding profiles were […]
(§4) emission filters were set to 465 nm and 590 nm, respectively. The temperature was raised with a step rate of 3 °C per minute. […]
(§5) inflection point of the transition curve. […]
(§6) previously.[3] In brief, STK10, STK3, STK4 and SLK were obtained as plasmids cloned in […]
(§7) Plasmids were transfected into
(§8) KD concentration taken from TracerDB (tracerdb.org)[4] were pipetted into white 384-well

T1 sequence (P49761 127-484): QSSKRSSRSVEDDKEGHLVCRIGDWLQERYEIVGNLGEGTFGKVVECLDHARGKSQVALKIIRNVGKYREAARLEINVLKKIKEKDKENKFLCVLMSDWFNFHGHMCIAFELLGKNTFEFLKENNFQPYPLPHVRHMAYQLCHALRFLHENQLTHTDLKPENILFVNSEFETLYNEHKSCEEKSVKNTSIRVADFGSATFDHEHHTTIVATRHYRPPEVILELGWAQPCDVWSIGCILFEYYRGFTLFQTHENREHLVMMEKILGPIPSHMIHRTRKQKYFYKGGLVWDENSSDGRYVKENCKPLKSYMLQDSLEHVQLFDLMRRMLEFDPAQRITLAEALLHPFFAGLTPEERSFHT

| SMILES | ΔTm at 10 µM [°C] |
| --- | --- |
| O=C(NCc1ccc(Cl)cc1)Nc1ccc2cc1OCCOCCNc1ccn3ncc-2c3n1 [compound 19] | 0.4 |
| O=C(NCc1ccc(Cl)cc1Cl)Nc1ccc2cc1OCCOCCNc1ccn3ncc-2c3n1 [compound 20] | 0.3 |
| O=C(NCc1ccc(Cl)cc1F)Nc1ccc2cc1OCCOCCNc1ccn3ncc-2c3n1 [compound 21] | 0.6 |
| Cc1cc(Cl)ccc1CNC(=O)Nc1ccc2cc1OCCOCCNc1ccn3ncc-2c3n1 [compound 23] | 0.4 |

Molecular target: T2, ULK1A (Homo sapiens, UniProt O75385)
T2 construct: purchased in-house DSF kinase panel (SGC-style construct names; the trailing letter is the construct ID)
T2 sequence (O75385 1-283): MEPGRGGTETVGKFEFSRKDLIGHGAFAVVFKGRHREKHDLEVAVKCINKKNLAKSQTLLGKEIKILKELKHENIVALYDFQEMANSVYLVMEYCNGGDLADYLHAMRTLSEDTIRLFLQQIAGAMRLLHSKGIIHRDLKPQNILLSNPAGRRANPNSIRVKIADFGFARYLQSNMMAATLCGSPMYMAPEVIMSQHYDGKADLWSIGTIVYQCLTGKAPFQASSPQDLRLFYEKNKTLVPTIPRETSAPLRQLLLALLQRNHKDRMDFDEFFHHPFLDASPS
Test: DSF Tm panel
Assay type: binding
Conditions: 10 μM compound
Description: as §1, §2, §3, §4, §5, §6, §7, §8

| SMILES | ΔTm at 10 µM [°C] |
| --- | --- |
| O=C(NCc1ccc(Cl)cc1)Nc1ccc2cc1OCCOCCNc1ccn3ncc-2c3n1 [compound 19] | 0.4 |
| O=C(NCc1ccc(Cl)cc1Cl)Nc1ccc2cc1OCCOCCNc1ccn3ncc-2c3n1 [compound 20] | 0.6 |
| O=C(NCc1ccc(Cl)cc1F)Nc1ccc2cc1OCCOCCNc1ccn3ncc-2c3n1 [compound 21] | 0.2 |
| Cc1cc(Cl)ccc1CNC(=O)Nc1ccc2cc1OCCOCCNc1ccn3ncc-2c3n1 [compound 23] | 0.3 |

Molecular target: T3, CHEK2A (Homo sapiens, UniProt O96017)
T3 construct: purchased in-house DSF kinase panel (SGC-style construct names; the trailing letter is the construct ID)
Test: DSF Tm panel
Assay type: binding
Conditions: 10 μM compound
Description: as §1, §2, §3, §4, §5, §6, §7, §8

T3 sequence (O96017 210-531): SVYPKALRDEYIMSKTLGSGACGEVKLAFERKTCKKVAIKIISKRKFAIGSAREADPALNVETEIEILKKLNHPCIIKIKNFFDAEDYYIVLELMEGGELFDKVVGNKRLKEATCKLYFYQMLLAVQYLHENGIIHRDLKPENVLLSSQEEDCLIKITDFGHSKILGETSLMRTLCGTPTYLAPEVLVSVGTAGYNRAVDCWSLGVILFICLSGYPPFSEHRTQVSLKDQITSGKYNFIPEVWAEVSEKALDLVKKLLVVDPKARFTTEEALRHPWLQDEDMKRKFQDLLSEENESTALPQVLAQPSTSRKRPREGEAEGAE

| SMILES | ΔTm at 10 µM [°C] |
| --- | --- |
| O=C(NCc1ccc(Cl)cc1)Nc1ccc2cc1OCCOCCNc1ccn3ncc-2c3n1 [compound 19] | 4.5 |
| O=C(NCc1ccc(Cl)cc1Cl)Nc1ccc2cc1OCCOCCNc1ccn3ncc-2c3n1 [compound 20] | 3.6 |
| O=C(NCc1ccc(Cl)cc1F)Nc1ccc2cc1OCCOCCNc1ccn3ncc-2c3n1 [compound 21] | 5 |
| Cc1cc(Cl)ccc1CNC(=O)Nc1ccc2cc1OCCOCCNc1ccn3ncc-2c3n1 [compound 23] | 5.7 |

Molecular target: T4, CAMK4A (Homo sapiens, UniProt Q16566)
T4 construct: purchased in-house DSF kinase panel (SGC-style construct names; the trailing letter is the construct ID)
T4 sequence (Q16566 1-473): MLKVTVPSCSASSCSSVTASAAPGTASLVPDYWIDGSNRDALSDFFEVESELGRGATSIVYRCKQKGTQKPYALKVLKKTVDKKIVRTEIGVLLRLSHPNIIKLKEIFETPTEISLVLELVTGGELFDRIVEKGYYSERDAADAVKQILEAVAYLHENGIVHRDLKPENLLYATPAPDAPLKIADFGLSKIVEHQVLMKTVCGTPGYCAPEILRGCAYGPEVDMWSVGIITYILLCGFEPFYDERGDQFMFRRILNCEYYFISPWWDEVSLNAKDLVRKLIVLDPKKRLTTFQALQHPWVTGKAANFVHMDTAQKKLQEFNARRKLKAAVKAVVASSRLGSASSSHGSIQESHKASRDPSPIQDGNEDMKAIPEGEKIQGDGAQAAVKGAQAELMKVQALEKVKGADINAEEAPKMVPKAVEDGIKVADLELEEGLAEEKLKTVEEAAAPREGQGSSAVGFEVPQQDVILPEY
Test: DSF Tm panel
Assay type: binding
Conditions: 10 μM compound
Description: as §1, §2, §3, §4, §5, §6, §7, §8

| SMILES | ΔTm at 10 µM [°C] |
| --- | --- |
| O=C(NCc1ccc(Cl)cc1)Nc1ccc2cc1OCCOCCNc1ccn3ncc-2c3n1 [compound 19] | 1 |
| O=C(NCc1ccc(Cl)cc1Cl)Nc1ccc2cc1OCCOCCNc1ccn3ncc-2c3n1 [compound 20] | 0.4 |
| O=C(NCc1ccc(Cl)cc1F)Nc1ccc2cc1OCCOCCNc1ccn3ncc-2c3n1 [compound 21] | 0.9 |
| Cc1cc(Cl)ccc1CNC(=O)Nc1ccc2cc1OCCOCCNc1ccn3ncc-2c3n1 [compound 23] | 0.6 |

Molecular target: T5, PLK4A (Homo sapiens, UniProt O00444)
T5 construct: purchased in-house DSF kinase panel (SGC-style construct names; the trailing letter is the construct ID)
T5 sequence (O00444 2-275): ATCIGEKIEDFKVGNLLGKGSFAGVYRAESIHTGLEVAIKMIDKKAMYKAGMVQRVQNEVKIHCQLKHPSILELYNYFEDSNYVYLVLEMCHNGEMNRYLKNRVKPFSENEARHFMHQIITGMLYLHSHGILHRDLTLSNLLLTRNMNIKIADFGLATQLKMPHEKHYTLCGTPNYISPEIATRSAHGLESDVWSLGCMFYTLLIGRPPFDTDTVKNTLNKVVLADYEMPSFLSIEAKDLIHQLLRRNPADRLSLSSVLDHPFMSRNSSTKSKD
Test: DSF Tm panel
Assay type: binding
Conditions: 10 μM compound
Description: as §1, §2, §3, §4, §5, §6, §7, §8

| SMILES | ΔTm at 10 µM [°C] |
| --- | --- |
| O=C(NCc1ccc(Cl)cc1)Nc1ccc2cc1OCCOCCNc1ccn3ncc-2c3n1 [compound 19] | 2.5 |
| O=C(NCc1ccc(Cl)cc1Cl)Nc1ccc2cc1OCCOCCNc1ccn3ncc-2c3n1 [compound 20] | 2.8 |
| O=C(NCc1ccc(Cl)cc1F)Nc1ccc2cc1OCCOCCNc1ccn3ncc-2c3n1 [compound 21] | 2.6 |
| Cc1cc(Cl)ccc1CNC(=O)Nc1ccc2cc1OCCOCCNc1ccn3ncc-2c3n1 [compound 23] | 2.8 |

Molecular target: T6, PAK4A (Homo sapiens, UniProt O96013)
T6 construct: purchased in-house DSF kinase panel (SGC-style construct names; the trailing letter is the construct ID)
Test: DSF Tm panel
Assay type: binding
Conditions: 10 μM compound
Description: as §1, §2, §3, §4, §5, §6, §7, §8

T6 sequence (O96013 291-591): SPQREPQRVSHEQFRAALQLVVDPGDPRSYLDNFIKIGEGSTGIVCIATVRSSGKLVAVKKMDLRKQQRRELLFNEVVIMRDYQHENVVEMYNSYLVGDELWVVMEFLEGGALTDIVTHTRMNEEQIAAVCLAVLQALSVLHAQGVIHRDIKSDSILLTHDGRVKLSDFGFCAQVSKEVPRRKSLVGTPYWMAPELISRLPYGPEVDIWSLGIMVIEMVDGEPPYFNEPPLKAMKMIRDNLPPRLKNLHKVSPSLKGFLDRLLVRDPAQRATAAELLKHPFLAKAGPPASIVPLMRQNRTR

| SMILES | ΔTm at 10 µM [°C] |
| --- | --- |
| O=C(NCc1ccc(Cl)cc1)Nc1ccc2cc1OCCOCCNc1ccn3ncc-2c3n1 [compound 19] | 0.1 |
| O=C(NCc1ccc(Cl)cc1Cl)Nc1ccc2cc1OCCOCCNc1ccn3ncc-2c3n1 [compound 20] | 0.8 |
| O=C(NCc1ccc(Cl)cc1F)Nc1ccc2cc1OCCOCCNc1ccn3ncc-2c3n1 [compound 21] | 0.9 |
| Cc1cc(Cl)ccc1CNC(=O)Nc1ccc2cc1OCCOCCNc1ccn3ncc-2c3n1 [compound 23] | 1.2 |

Molecular target: T7, MAP2K4A (Homo sapiens, UniProt P45985)
T7 construct: purchased in-house DSF kinase panel (SGC-style construct names; the trailing letter is the construct ID)
T7 sequence (P45985 102-367): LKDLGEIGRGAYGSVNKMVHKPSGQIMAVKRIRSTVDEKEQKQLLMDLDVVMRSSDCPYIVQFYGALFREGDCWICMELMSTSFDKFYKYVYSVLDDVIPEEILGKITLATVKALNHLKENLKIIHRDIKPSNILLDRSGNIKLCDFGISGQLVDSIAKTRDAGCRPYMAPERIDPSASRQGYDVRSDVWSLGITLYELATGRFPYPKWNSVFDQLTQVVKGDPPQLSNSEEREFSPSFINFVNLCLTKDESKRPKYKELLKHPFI
Test: DSF Tm panel
Assay type: binding
Conditions: 10 μM compound
Description: as §1, §2, §3, §4, §5, §6, §7, §8

| SMILES | ΔTm at 10 µM [°C] |
| --- | --- |
| O=C(NCc1ccc(Cl)cc1)Nc1ccc2cc1OCCOCCNc1ccn3ncc-2c3n1 [compound 19] | 5.7 |
| O=C(NCc1ccc(Cl)cc1Cl)Nc1ccc2cc1OCCOCCNc1ccn3ncc-2c3n1 [compound 20] | 3.9 |
| O=C(NCc1ccc(Cl)cc1F)Nc1ccc2cc1OCCOCCNc1ccn3ncc-2c3n1 [compound 21] | 5.4 |
| Cc1cc(Cl)ccc1CNC(=O)Nc1ccc2cc1OCCOCCNc1ccn3ncc-2c3n1 [compound 23] | 4.8 |

Molecular target: T8, STK17AA (Homo sapiens, UniProt Q9UEE5)
T8 construct: purchased in-house DSF kinase panel (SGC-style construct names; the trailing letter is the construct ID)
T8 sequence (Q9UEE5 61-321): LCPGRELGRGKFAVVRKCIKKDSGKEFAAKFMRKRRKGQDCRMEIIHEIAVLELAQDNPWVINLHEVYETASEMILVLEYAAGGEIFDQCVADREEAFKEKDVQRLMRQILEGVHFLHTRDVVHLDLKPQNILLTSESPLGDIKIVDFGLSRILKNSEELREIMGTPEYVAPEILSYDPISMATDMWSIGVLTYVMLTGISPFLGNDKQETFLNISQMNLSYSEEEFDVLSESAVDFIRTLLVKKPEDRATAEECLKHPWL
Test: DSF Tm panel
Assay type: binding
Conditions: 10 μM compound
Description: as §1, §2, §3, §4, §5, §6, §7, §8

| SMILES | ΔTm at 10 µM [°C] |
| --- | --- |
| O=C(NCc1ccc(Cl)cc1)Nc1ccc2cc1OCCOCCNc1ccn3ncc-2c3n1 [compound 19] | 2 |
| O=C(NCc1ccc(Cl)cc1Cl)Nc1ccc2cc1OCCOCCNc1ccn3ncc-2c3n1 [compound 20] | 1.6 |
| O=C(NCc1ccc(Cl)cc1F)Nc1ccc2cc1OCCOCCNc1ccn3ncc-2c3n1 [compound 21] | 2 |
| Cc1cc(Cl)ccc1CNC(=O)Nc1ccc2cc1OCCOCCNc1ccn3ncc-2c3n1 [compound 23] | 0.7 |

Molecular target: T9, BMX (BMXA) (Homo sapiens, UniProt P51813)
T9 construct: purchased in-house DSF kinase panel (SGC-style construct names; the trailing letter is the construct ID)
Test: DSF Tm panel
Assay type: binding
Conditions: 10 μM compound
Description: as §1, §2, §3, §4, §5, §6, §7, §8

T9 sequence (P51813 411-675): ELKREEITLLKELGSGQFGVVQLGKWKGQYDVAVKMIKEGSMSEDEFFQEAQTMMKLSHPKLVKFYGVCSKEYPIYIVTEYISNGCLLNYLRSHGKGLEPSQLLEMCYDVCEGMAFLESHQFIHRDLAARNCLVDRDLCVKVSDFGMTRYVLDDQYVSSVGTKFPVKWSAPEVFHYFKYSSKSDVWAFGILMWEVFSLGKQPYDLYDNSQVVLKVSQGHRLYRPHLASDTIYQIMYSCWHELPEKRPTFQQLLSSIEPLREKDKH

| SMILES | ΔTm at 10 µM [°C] |
| --- | --- |
| O=C(NCc1ccc(Cl)cc1)Nc1ccc2cc1OCCOCCNc1ccn3ncc-2c3n1 [compound 19] | 1.4 |
| O=C(NCc1ccc(Cl)cc1Cl)Nc1ccc2cc1OCCOCCNc1ccn3ncc-2c3n1 [compound 20] | 1.6 |
| O=C(NCc1ccc(Cl)cc1F)Nc1ccc2cc1OCCOCCNc1ccn3ncc-2c3n1 [compound 21] | 1.4 |
| Cc1cc(Cl)ccc1CNC(=O)Nc1ccc2cc1OCCOCCNc1ccn3ncc-2c3n1 [compound 23] | 1.8 |

Molecular target: T10, PIM3A (Homo sapiens, UniProt Q86V86)
T10 construct: purchased in-house DSF kinase panel (SGC-style construct names; the trailing letter is the construct ID)
Test: DSF Tm panel
Assay type: binding
Conditions: 10 μM compound
Description: as §1, §2, §3, §4, §5, §6, §7, §8

| SMILES | ΔTm at 10 µM [°C] |
| --- | --- |
| O=C(NCc1ccc(Cl)cc1)Nc1ccc2cc1OCCOCCNc1ccn3ncc-2c3n1 [compound 19] | 2.4 |
| O=C(NCc1ccc(Cl)cc1Cl)Nc1ccc2cc1OCCOCCNc1ccn3ncc-2c3n1 [compound 20] | 3.3 |
| O=C(NCc1ccc(Cl)cc1F)Nc1ccc2cc1OCCOCCNc1ccn3ncc-2c3n1 [compound 21] | 3.9 |
| Cc1cc(Cl)ccc1CNC(=O)Nc1ccc2cc1OCCOCCNc1ccn3ncc-2c3n1 [compound 23] | 2.2 |

Molecular target: T11, FGFR1B (Homo sapiens, UniProt P11362)
T11 construct: purchased in-house DSF kinase panel (SGC-style construct names; the trailing letter is the construct ID)
Test: DSF Tm panel
Assay type: binding
Conditions: 10 μM compound
Description: as §1, §2, §3, §4, §5, §6, §7, §8

T11 sequence (P11362 456-767): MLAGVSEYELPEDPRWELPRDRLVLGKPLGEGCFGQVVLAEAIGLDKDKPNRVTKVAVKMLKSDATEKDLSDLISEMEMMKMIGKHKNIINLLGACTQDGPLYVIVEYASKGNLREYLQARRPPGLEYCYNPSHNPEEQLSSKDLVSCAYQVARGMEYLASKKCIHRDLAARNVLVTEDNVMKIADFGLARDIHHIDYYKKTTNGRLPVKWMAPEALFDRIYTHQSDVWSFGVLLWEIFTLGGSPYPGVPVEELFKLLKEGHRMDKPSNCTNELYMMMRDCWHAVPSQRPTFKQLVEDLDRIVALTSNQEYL

| SMILES | ΔTm at 10 µM [°C] |
| --- | --- |
| O=C(NCc1ccc(Cl)cc1)Nc1ccc2cc1OCCOCCNc1ccn3ncc-2c3n1 [compound 19] | 1.5 |
| O=C(NCc1ccc(Cl)cc1Cl)Nc1ccc2cc1OCCOCCNc1ccn3ncc-2c3n1 [compound 20] | 0.9 |
| O=C(NCc1ccc(Cl)cc1F)Nc1ccc2cc1OCCOCCNc1ccn3ncc-2c3n1 [compound 21] | 1.1 |
| Cc1cc(Cl)ccc1CNC(=O)Nc1ccc2cc1OCCOCCNc1ccn3ncc-2c3n1 [compound 23] | 1.1 |
